Measurements from patent US9505763B2, “Cancer treatment using BMP inhibitor” (Vanderbilt University, priority 2011, dated 2016).

How the values were obtained:
alk2 = target: T1, alk2 (Mus musculus, UniProt P37172); settings: reported [26]; cited from earlier work
T1 construct: host or cells: C2C12
T1 sequence (P37172 21-509): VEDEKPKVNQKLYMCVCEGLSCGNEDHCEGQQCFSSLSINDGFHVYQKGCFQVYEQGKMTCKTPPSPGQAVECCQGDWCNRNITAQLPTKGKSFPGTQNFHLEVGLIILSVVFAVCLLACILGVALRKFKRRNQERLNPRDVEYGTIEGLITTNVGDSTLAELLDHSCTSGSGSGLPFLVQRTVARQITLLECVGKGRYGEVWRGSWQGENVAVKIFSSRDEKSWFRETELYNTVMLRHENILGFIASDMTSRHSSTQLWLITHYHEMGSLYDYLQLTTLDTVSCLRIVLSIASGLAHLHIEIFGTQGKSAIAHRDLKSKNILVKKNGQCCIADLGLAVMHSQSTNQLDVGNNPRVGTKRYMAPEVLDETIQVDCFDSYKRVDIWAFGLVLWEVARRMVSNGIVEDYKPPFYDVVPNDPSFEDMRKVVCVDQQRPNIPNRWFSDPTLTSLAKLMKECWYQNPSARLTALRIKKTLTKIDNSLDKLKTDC

Id1 and Id3 protein = assay: Western blot for Id1 and Id3; format: cell-based; settings: for protein levels of Id1 and Id3: A549 and H1299 cells
Method: (§1) Western Blot Analysis. Total cellular protein was prepared using RIPA buffer containing a protease inhibitor cocktail and protein concentration was measured using the BCA assay as described. In brief, protein was analyzed by SDS-PAGE, transferred to nitrocellulose (Schleicher and Schuell, Keene, N.H.). After blocking, the blots were incubated overnight at 4° C. with the appropriate primary antibody in Tris-buffered saline with 1% Tween (TBST) and 5% non-fat milk. Secondary antibodies were applied for 1 hour at room temperature. Specific proteins were detected using the enhanced chemiluminescence system (Amersham, Arlington Heights, Ill.). The primary antibodies that were used were rabbit monoclonal anti-pSmad 1/5/8 (Cell signaling Technology, Danvers Mass.) rabbit anti-actin, an affinity isolated antigen specific antibody (Sigma, Saint Louis, Mo.), rabbit monoclonal anti-Id1 and rabbit monoclonal anti-Id3 (Calbioreagents, San Mateo, Calif.).

A549 cells [1] = assay: Clonogenic growth assay; format: cell-based; settings: 1 μM, 2 weeks
Method: (§2) Clonigenic Growth Assay. A549 and H1299 cells were plated into 6 well plates with 500 cells per well. The next day the cells were treated with DMSO or a BMP receptor antagonist for 2 weeks. The colonies were stained with Diff-Quick (IMEB Inc. San Marcos, Calif.) and the total number of colonies per well counted.

H1299 cells [2] = assay: Clonogenic growth assay; format: cell-based; settings: 1 μM, 2 weeks
Method: as §2

A549 cells [3] = assay: Cell counts after 7 days; format: cell-based; settings: DMEM 5% FCS, 10 μM Dorsomorphin or 1 μM DMH1, DMH2, LDN
Method: (§3) Cell Counts. A549 and H1299 cells were plated into 6 well plates with 100,000 cells per well. Cells were treated with DMSO or a BMP receptor antagonist for 7 days. The cells were detached with trypsin, stained with trypan blue, and the number of live cells counted using a hemacytometer.

H1299 cells [4] = assay: Cell counts after 7 days; format: cell-based; settings: H1299, DMEM 5% FCS, 10 μM Dorsomorphin or 1 μM DMH1, DMH2, LDN
Method: as §3

Smad 1/5/8 activity = assay: BRE-luciferase reporter assay; format: cell-based; settings: H1299 cells; 10 μM Dorsomorphin or 1 μM DMH1, DMH2, LDN; 48 hours; vs DMSO
Method: Luciferase Assays. 10^6 H1299 cells were transfected with 2 μg of BRE-luciferace plasmid using a Nucleofector II. […] Cells were lysed with luciferase lysis buffer (Promega). Samples were added to luciferase assay substrate (Promega) and luminsescence measured by the TD-20/20 Luminometer (Turner Designs/Turner BioSystems, Sunnyvale, Calif.). Control samples included luciferase assay substrate alone and luciferase assay substrate plus 1× reporter lysis buffer.

alk6 = target: T2, alk6 (Mus musculus, UniProt P36898); settings: reported [26]; cited from earlier work
T2 construct: host or cells: C2C12
T2 sequence (P36898 14-502): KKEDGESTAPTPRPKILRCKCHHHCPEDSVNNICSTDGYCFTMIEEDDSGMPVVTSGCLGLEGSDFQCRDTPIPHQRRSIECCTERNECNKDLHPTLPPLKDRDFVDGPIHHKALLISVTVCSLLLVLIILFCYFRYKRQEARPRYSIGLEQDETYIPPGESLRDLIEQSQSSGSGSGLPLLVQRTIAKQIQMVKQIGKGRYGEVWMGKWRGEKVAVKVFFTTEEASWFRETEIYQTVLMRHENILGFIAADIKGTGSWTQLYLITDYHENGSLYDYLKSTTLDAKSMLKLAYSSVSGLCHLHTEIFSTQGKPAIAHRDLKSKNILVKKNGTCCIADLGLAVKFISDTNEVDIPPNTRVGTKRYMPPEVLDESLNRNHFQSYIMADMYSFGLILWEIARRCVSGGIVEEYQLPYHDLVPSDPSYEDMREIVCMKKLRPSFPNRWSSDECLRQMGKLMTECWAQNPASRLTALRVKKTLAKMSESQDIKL

[5] = test system: constitutively active alk6 (ca-alk6); assay: BRE-luciferase with constitutively active alk6 in H1299 cells; format: cell-based; settings: 1 μM antagonist
Method: (§4) To assess the effects of antagonists on a specific type I BMP receptor, 2 μg of constitutively active ca-alk3 and ca-alk6 expression vectors were co-transfected with the BRE-luciferase reporter into H1299 cells with Nucleofector II. Control cells were co-transfected with the pcDNA3 expression vector. After 48 hours the cells were treated with DMSO or a BMP receptor antagonist for 48 hours and luminescence was measured.

[6] = test system: phosphorylated Smad 1/5/8; assay: Western blot for phosphorylated Smad 1/5/8; format: cell-based; settings: for level of phosphorylated Smad 1/5/8 expression: lung cancer cell lines (H1299, A549)
Method: as §1

AMP kinase = settings: compared with Dorsomorphin and LDN; cited from earlier work
alk3 = target: T3, alk3 (Mus musculus, UniProt P36895); settings: reported [26]; cited from earlier work
T3 construct: host or cells: C2C12
T3 sequence (P36895 24-532): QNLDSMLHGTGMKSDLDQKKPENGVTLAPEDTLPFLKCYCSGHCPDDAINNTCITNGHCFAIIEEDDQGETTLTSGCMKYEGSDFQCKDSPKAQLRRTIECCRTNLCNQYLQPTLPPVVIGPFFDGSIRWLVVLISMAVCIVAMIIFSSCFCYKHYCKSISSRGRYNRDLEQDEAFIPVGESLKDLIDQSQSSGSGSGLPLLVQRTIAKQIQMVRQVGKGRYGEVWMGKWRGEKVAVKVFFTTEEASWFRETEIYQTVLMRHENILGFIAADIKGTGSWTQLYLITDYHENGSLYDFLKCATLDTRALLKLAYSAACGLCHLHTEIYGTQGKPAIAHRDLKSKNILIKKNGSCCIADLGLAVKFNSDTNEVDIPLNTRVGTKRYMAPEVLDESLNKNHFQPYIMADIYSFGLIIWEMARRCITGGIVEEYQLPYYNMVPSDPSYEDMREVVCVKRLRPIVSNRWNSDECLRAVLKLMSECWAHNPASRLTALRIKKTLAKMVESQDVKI

A549 cells [7] = assay: Ethidium bromide uptake cell death assay; format: cell-based; settings: 48 hours, 10 μM Dorsomorphin or 1 μM selective antagonist
Method: Cell Death Assay: A549 and H1299 cells were plated in 6 well plates with 10^6 cells per well. Cells were treated with DMSO or a BMP receptor antagonist for 12 and 48 hours. Adherent and floating cells were harvested and incubated with 0.1 mg/ml of ethidium bromide. Immediately after staining approximately 100 cells were counted and the percentage of cells that took up ethidium bromide was determined.

[8] = test system: Id1, Id2, and Id3 expression; assay: Quantitative RT-PCR for Id family members; format: cell-based; settings: A549 and H1299 cell lines; 10 μM Dorsomorphin, 1 μM DMH1 or DMH2; 48 hours
Method: Quantification of Gene Expression. RNA was extracted using the RNeasy kit as per the manufacturer's instructions (Qiagen, Valencia, Calif.). DNAase was used to remove any DNA contamination. cDNA was generated using Advantage RT for PCR kit (BD BiosciencesClontech, Palo Alto, Calif.). Quantitative PCR was performed with the Stratagene Mx3005p (Agilent Technologies) and predesigned validated Taq-Man gene expression assays according to the manufacturer's specifications (Applied Biosystems, Foster City, Calif.). Reference numbers used are: GAPDH (Hs99999905_m1), ACVRL1 (alk1) (Hs00163543_m1), ACVR1A (alk2) (Hs00153836_m1), BMR1A (alk3) (Hs00831730_s1), BMPR1B (alk6) (Hs00176144_m1), Id1 (Hs00357821_g1), Id2 (Hs00747379_m1), and Id3 (Hs00171409-m1). Negative control included all reagents except cDNA. Expression was normalized to GAPDH using the formula […].

[9] = target: T4, constitutively active alk3 (ca-alk3) (Homo sapiens, UniProt P36894, Q233D); assay: BRE-luciferase with constitutively active alk3 in H1299 cells; format: cell-based; settings: 1 μM antagonist
T4 construct: expressed in transfected cells; host or cells: H1299
T4 sequence (P36894 24-532 Q233D): as the sequence (P36895 24-532) above, with L16S, P21S, T74A, V133L, V142I, G164R, Q210D, I373V counted along it
Method: as §4

TGFβ receptor alk5 = target: T5, TGFβ receptor alk5 (Homo sapiens, UniProt P36897); settings: compared with Dorsomorphin and LDN; cited from earlier work
T5 sequence (P36897 34-503): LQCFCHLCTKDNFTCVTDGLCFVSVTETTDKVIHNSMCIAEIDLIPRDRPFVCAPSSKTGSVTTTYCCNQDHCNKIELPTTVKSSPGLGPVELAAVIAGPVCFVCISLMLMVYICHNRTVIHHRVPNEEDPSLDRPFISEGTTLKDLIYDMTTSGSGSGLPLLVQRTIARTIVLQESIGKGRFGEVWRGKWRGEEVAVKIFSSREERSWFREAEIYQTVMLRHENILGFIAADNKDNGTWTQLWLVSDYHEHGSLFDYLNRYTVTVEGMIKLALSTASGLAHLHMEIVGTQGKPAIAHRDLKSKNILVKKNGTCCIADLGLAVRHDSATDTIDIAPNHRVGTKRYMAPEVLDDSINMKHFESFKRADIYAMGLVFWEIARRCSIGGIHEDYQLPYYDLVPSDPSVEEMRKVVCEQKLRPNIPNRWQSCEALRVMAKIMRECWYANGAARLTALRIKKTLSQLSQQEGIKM

VEGF II = VEGF II (Homo sapiens, UniProt P35968); settings: compared with Dorsomorphin and LDN; cited from earlier work
Sequence of VEGF II (P35968 20-1356): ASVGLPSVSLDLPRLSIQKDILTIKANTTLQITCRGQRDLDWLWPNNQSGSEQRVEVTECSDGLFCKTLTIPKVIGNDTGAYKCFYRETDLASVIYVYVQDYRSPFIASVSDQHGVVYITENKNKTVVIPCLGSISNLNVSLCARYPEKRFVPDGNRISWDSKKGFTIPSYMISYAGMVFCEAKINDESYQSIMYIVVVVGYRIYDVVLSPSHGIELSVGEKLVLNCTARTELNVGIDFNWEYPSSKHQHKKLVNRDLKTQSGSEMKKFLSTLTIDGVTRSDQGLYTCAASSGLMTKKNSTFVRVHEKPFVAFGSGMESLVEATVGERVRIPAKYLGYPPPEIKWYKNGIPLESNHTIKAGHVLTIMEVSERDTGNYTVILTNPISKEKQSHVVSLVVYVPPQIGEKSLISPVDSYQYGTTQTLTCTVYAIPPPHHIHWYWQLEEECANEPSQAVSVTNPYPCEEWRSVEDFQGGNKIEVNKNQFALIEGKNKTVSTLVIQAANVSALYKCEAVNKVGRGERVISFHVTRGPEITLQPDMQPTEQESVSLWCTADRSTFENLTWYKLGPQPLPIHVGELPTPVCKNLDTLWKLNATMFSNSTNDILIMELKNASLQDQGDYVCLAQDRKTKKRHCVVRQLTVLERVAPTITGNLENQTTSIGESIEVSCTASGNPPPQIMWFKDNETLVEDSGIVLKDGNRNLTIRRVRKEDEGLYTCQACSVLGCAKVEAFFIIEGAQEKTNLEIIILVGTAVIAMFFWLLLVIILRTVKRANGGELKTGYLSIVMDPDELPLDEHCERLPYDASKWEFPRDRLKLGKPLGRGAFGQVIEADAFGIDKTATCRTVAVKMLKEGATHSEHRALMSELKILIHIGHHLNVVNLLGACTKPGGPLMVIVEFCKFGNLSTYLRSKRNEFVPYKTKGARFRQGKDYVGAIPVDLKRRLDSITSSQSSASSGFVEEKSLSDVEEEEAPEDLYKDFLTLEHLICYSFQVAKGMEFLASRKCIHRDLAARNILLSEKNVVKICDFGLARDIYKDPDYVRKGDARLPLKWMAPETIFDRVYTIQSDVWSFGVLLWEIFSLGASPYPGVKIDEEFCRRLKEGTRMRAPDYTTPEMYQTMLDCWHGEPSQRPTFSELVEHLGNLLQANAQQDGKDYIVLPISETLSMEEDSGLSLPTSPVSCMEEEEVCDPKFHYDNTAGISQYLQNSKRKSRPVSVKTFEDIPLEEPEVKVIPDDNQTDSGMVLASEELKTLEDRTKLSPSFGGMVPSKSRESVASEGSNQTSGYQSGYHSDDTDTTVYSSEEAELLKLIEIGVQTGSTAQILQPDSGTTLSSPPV

A549 cells [10] = assay: Soft agar assay (anchorage independent growth); format: cell-based; settings: A549 in soft agar; 1 μM; 2 weeks
Method: (§5) Soft Agar Assay. A 1% agar mixture was prepared in sterile double-distilled water, microwaved, and cooled to 40° C. in a water bath. DMEM was also incubated at 40° C. Equal amounts of each were mixed and 1 ml added to each well of a six well plate. The base agar was allowed to solidify. A 0.7% agar mixture was prepared then cooled to 40° degrees. Cells were trypsinized and counted. Cells (2500 cells per well) were placed in pre-warmed DMEM containing DMSO or DMH1 […]. The treated cells were then mixed with the 0.7% agar and 2 ml placed on top of the base agar. Once solidified, 1 ml of DMEM was placed on top of the agar. […]

H1299 cells [11] = assay: Soft agar assay (anchorage independent growth); format: cell-based; settings: H1299 in soft agar; 1 μM; 2 weeks
Method: as §5

[12] = target: platelet-derived growth factor receptor-β (Homo sapiens, UniProt P09619); settings: compared with Dorsomorphin and LDN; cited from earlier work
Sequence of platelet-derived growth factor receptor-β (P09619 33-1106, species assumed): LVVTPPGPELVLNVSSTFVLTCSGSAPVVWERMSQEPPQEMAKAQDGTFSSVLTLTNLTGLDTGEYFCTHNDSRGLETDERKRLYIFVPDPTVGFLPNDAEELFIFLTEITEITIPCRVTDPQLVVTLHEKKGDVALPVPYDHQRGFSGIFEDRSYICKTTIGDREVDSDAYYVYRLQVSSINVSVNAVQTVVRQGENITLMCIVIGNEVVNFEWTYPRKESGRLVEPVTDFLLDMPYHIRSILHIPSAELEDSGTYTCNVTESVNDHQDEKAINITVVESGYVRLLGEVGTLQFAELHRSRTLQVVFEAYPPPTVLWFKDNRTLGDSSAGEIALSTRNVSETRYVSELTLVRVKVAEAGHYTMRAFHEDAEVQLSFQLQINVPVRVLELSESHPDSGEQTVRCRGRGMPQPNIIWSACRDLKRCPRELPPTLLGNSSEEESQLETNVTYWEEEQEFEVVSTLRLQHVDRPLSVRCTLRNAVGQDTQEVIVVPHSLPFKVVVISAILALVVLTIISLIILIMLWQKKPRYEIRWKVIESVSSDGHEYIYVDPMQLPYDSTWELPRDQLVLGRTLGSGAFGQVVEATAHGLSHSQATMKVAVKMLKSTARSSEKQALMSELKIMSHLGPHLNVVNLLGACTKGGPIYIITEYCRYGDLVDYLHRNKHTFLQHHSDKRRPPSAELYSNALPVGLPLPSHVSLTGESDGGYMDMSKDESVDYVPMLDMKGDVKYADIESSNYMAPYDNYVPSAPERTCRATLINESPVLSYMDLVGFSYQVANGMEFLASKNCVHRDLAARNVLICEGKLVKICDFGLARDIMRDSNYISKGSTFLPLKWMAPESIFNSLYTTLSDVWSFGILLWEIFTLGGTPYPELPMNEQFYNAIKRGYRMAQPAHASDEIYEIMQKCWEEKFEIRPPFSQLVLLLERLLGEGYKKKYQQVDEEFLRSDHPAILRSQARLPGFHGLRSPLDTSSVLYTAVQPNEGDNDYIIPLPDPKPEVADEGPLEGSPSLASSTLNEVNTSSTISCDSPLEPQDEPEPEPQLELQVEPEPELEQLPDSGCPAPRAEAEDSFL

| SMILES | inhibition of alk2 activity (alk2) | protein levels of Id1 and Id3 (Id1 and Id3 protein) | Smad 1/5/8 activity (BRE-luciferase activity) (Smad 1/5/8 activity) | inhibition of alk6 activity (alk6) | inhibition of ca-alk6 activity (BRE-luciferase) [5] | level of phosphorylated Smad 1/5/8 expression [6] | activity for AMP kinase (comparison) (AMP kinase) | inhibition of alk3 activity (alk3) | further results |
| --- | --- | --- | --- | --- | --- | --- | --- | --- | --- |
| c1ccc2c(-c3cnn4cc(-c5ccc(N6CCNCC6)cc5)cnc34)ccnc2c1 [LDN, LDN-193189, reference compound] | effectively inhibits | decrease | significant decrease | effectively inhibits | very similar to that of DMH2 | decreased | less AMP kinse activity than Dorsomorphin | effectively inhibits | clonogenic growth (A549 cells [1]): inhibited more by DMH2 and LDN than DMH1; clonogenic growth (H1299 cells [2]): inhibited more by DMH2 and LDN than DMH1; cell growth (number of cells) (A549 cells [3]): more growth inhibition than DMH1; cell growth (number of cells) (H1299 cells [4]): more growth inhibition than DMH1; phosphorylated Smad 1/5/8 expression ([6]; A549 cells): decrease |
| CC(C)Oc1ccc(-c2cnc3c(-c4ccnc5ccccc45)cnn3c2)cc1 [DMH1] | inhibited | decrease | significant decrease | negligible inhibitory effects | partially inhibited alk6 but not as effectively as DMH2 | decreased | less activity | inhibited | cell death (percentage of cells taking up ethidium bromide) (A549 cells [7]): significant increase in cell death; Id1, Id2, and Id3 expression (mRNA) [8]: significantly decreased; inhibition of ca-alk3 activity (BRE-luciferase) [9]: significant inhibition; reduction of Id1 protein expression (comparison) (Id1 and Id3 protein; H1299 and A549 cells, 1 μM): greater reduction of Id1 in H1299 cells compared to A549 cells; activity for TGFβ receptor alk5 (comparison) (TGFβ receptor alk5): less activity; activity for VEGF II (comparison) (VEGF II): less activity; anchorage independent growth (A549 cells [10]): significantly reduced; anchorage independent growth (H1299 cells [11]): significantly reduced; activity for platelet-derived growth factor receptor-β (comparison) [12]: less activity |
